Measured values taken from patent US4882349A, “Pyrrolacetic amides having antiinflammatory activity” (priority 1982, dated 1989).

Key:
[1] = in vivo; conditions: rat
[2] = test system: cough provoked by mechanical stimulation of the tracheal bifurcation mucosa; assay: antitussive activity, mechanically provoked coughing; type: in vivo, albino Guinea-pigs; conditions: 1 h after administration
Protocol: The antitussive effect on albino Guinea-pigs weighing 300 g was evaluated using the method described by Y. Kase (Selected Pharmacological Testing Methods, p.363, Marcel Dekker Inc., New York, 1968). Each dose was tested in a group of animals with a Y cannula inserted into the trachea. In order to provoke coughing, the mucosa of the tracheal bifurcation was mechanically stimulated by insertion of a wild boar's hair through an opening in the cannula, while the other opening was connected to a kymograph to plot the amplitude and/or frequency. The reduction in the number of coughs was evaluated at one hour after administration of the compounds under examination by following the plottings for twenty minutes and comparing the response of the control animals.

[3] = test system: phenyl-p-quinone-induced writhing (abdominal contractions); assay: phenylquinone-induced writhing test (analgesic activity), compound given 30 min before phenyl-p-quinone; type: in vivo, male Wistar rats
In short: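 Male Wistar rats (110±5 g), fasted 14 h, received test compounds orally or parenterally in 0.5% CMC/saline vehicle 30 min before 2 ml of 0.36% phenyl-p-quinone in 5% ethanol.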

[4] = test system: mucus secreted by the respiratory airway; assay: antisecretory activity, respiratory mucus secretion; type: in vivo, albino male New Zealand rabbits; conditions: vs control group
Protocol: The experiment was carried out in accordance with the method described by Y. Kase (Folia Pharmacol. Jap. 73: 605, 1977) for the purpose of investigating whether or not the compounds under examination determine changes in the volume of the mucus secreted by the respiratory airway. Groups of four albino male New Zealand rabbits (mean weight: 2.5 kg) were used for testing each dose per single group. The animals were anesthetized with urethane (1.1 g/ks b.w.) via the intraperitoneal route and a Y cannula was inserted into the trachea. In order to stimulate mucous secretion a humidifier was connected to the cannula permitting the animals to spontaneously breathe air with 100% humidity at a constant temperature of 39° C. The secreted mucus was collected through another opening in the cannula and measured at three and six hours after administration of the compounds under examination or of the vehicle alone administered in the order of […] (controls). Calculation of the increase or decrease in mucous secretion was based upon the percentage differences between the groups treated with the compounds under examination and the control group. Table VII gives the percentage differences in mucous secretion, and the tested compounds with relative doses and routes of administration.

[5] = test system: carrageenin-induced oedema; assay: carrageenin-induced oedema test (anti-inflammatory activity); type: in vivo, albino male Wistar rats

For `COc1ccccc1OC(=O)CNC(=O)Cc1ccc(C(=O)c2ccc(C)cc2)n1C` [Compound 1-d, 1-methyl-5-p-toluoylpyrrole-2-acetamidoacetic acid guaiacyl ester], the LD50 ([1]; ip) was 1100 mg/kg, the LD50 ([1]; po) was 1450 mg/kg and the “% inhibition, cough amplitude” value ([2]; 50 mg/Kg i.p.) was 12%. For the same compound, the “% inhibition, cough frequency” value ([2]; 50 mg/Kg i.p.) was 15%, the “% inhibition, cough amplitude” value ([2]; 50 mg/Kg per os) was 10% and the “% inhibition, cough frequency” value ([2]; 50 mg/Kg per os) was 18%. The “% inhibition, cough amplitude” value ([2]; 75 mg/Kg i.p.) was 20%, the “% inhibition, cough frequency” value ([2]; 75 mg/Kg i.p.) was 36% and the “% inhibition, cough amplitude” value ([2]; 75 mg/Kg per os) was 22%. For the same compound, the “% inhibition, cough frequency” value ([2]; 75 mg/Kg per os) was 29%, the “% inhibition, cough amplitude” value ([2]; 100 mg/Kg i.p.) was 30% and the “% inhibition, cough frequency” value ([2]; 100 mg/Kg i.p.) was 45%. The “% inhibition, cough amplitude” value ([2]; 100 mg/Kg per os) was 30%, the “% inhibition, cough frequency” value ([2]; 100 mg/Kg per os) was 49% and the “% Protection” value ([3]; 5 mg/Kg i.p.) was 22.1%. For the same compound, the “% Protection” value ([3]; 5 mg/Kg per os) was 29.1%, the “% Protection” value ([3]; 10 mg/Kg i.p.) was 56.0% and the “% Protection” value ([3]; 10 mg/Kg per os) was 53.4%. For the same compound, the “% Protection” value ([3]; 20 mg/Kg i.p.) was 87.0%, the “% Protection” value ([3]; 20 mg/Kg per os) was 80.2% and the “% difference in mucus secretion” value ([4]; 50 mg/Kg i.p., 3 h) was -5%. The “% difference in mucus secretion” value ([4]; 50 mg/Kg i.p., 6 h) was -5%, the “% difference in mucus secretion” value ([4]; 50 mg/Kg per os, 3 h) was 0.0% and the “% difference in mucus secretion” value ([4]; 50 mg/Kg per os, 6 h) was 0.0%. The “% difference in mucus secretion” value ([4]; 75 mg/Kg i.p., 3 h) was -18%, the “% difference in mucus secretion” value ([4]; 75 mg/Kg i.p., 6 h) was -15% and the “% difference in mucus secretion” value ([4]; 75 mg/Kg per os, 3 h) was -15%. The “% difference in mucus secretion” value ([4]; 75 mg/Kg per os, 6 h) was -10%, the “% difference in mucus secretion” value ([4]; 100 mg/Kg i.p., 3 h) was -38% and the “% difference in mucus secretion” value ([4]; 100 mg/Kg i.p., 6 h) was -30%. The “% difference in mucus secretion” value ([4]; 100 mg/Kg per os, 3 h) was -32%, the “% difference in mucus secretion” value ([4]; 100 mg/Kg per os, 6 h) was -27% and the oedema % inhibition ([5]; 2.5 mg/Kg per os, 2 h) was 50.0%. It also gave an oedema % inhibition ([5]; 2.5 mg/Kg per os, 4 h) of 34.6%, an oedema % inhibition ([5]; 2.5 mg/Kg per os, 6 h) of 23.1% and an oedema % inhibition ([5]; 2.5 mg/Kg per os, 24 h) of 0.0%. For the same compound, the oedema % inhibition ([5]; 2.5 mg/Kg per os, 48 h) was 0.0%, the oedema % inhibition ([5]; 2.5 mg/Kg per os, 72 h) was 0.0% and the oedema % inhibition ([5]; 2.5 mg/Kg, Table IV (route not given), 2 h) was 52.3%. For the same compound, the oedema % inhibition ([5]; 2.5 mg/Kg, Table IV (route not given), 4 h) was 37.0%, the oedema % inhibition ([5]; 2.5 mg/Kg, Table IV (route not given), 6 h) was 26.0% and the oedema % inhibition ([5]; 2.5 mg/Kg, Table IV (route not given), 24 h) was 14.0%. It also gave an oedema % inhibition ([5]; 2.5 mg/Kg, Table IV (route not given), 48 h) of 0.0%, an oedema % inhibition ([5]; 2.5 mg/Kg, Table IV (route not given), 72 h) of 0.0% and an oedema % inhibition ([5]; 5 mg/Kg per os, 2 h) of 51.4%. For the same compound, the oedema % inhibition ([5]; 5 mg/Kg per os, 4 h) was 38.8%, the oedema % inhibition ([5]; 5 mg/Kg per os, 6 h) was 24.0% and the oedema % inhibition ([5]; 5 mg/Kg per os, 24 h) was 10.0%. It also gave an oedema % inhibition ([5]; 5 mg/Kg per os, 48 h) of 10.0%, an oedema % inhibition ([5]; 5 mg/Kg per os, 72 h) of 6.0% and an oedema % inhibition ([5]; 5 mg/Kg, Table IV (route not given), 2 h) of 54.0%. The oedema % inhibition ([5]; 5 mg/Kg, Table IV (route not given), 4 h) was 40.0%, the oedema % inhibition ([5]; 5 mg/Kg, Table IV (route not given), 6 h) was 24.6% and the oedema % inhibition ([5]; 5 mg/Kg, Table IV (route not given), 24 h) was 10.1%. For the same compound, the oedema % inhibition ([5]; 5 mg/Kg, Table IV (route not given), 48 h) was 0.0%, the oedema % inhibition ([5]; 5 mg/Kg, Table IV (route not given), 72 h) was 0.0% and the oedema % inhibition ([5]; 10 mg/Kg per os, 2 h) was 61.5%. The oedema % inhibition ([5]; 10 mg/Kg per os, 4 h) was 41.2%, the oedema % inhibition ([5]; 10 mg/Kg per os, 6 h) was 34.9% and the oedema % inhibition ([5]; 10 mg/Kg per os, 24 h) was 12.6%. It also gave an oedema % inhibition ([5]; 10 mg/Kg per os, 48 h) of 14.0%, an oedema % inhibition ([5]; 10 mg/Kg per os, 72 h) of 9.0% and an oedema % inhibition ([5]; 10 mg/Kg, Table IV (route not given), 2 h) of 60.0%. It also gave an oedema % inhibition ([5]; 10 mg/Kg, Table IV (route not given), 4 h) of 46.9%, an oedema % inhibition ([5]; 10 mg/Kg, Table IV (route not given), 6 h) of 36.7% and an oedema % inhibition ([5]; 10 mg/Kg, Table IV (route not given), 24 h) of 16.5%. The oedema % inhibition ([5]; 10 mg/Kg, Table IV (route not given), 48 h) was 6.3%, the oedema % inhibition ([5]; 10 mg/Kg, Table IV (route not given), 72 h) was 0.0% and the oedema % inhibition ([5]; 20 mg/Kg per os, 2 h) was 62.1%. For the same compound, the oedema % inhibition ([5]; 20 mg/Kg per os, 4 h) was 48.7%, the oedema % inhibition ([5]; 20 mg/Kg per os, 6 h) was 32.8% and the oedema % inhibition ([5]; 20 mg/Kg per os, 24 h) was 26.6%. The oedema % inhibition ([5]; 20 mg/Kg per os, 48 h) was 25.9%, the oedema % inhibition ([5]; 20 mg/Kg per os, 72 h) was 3.3% and the oedema % inhibition ([5]; 20 mg/Kg, Table IV (route not given), 2 h) was 65.0%. It also gave an oedema % inhibition ([5]; 20 mg/Kg, Table IV (route not given), 4 h) of 50.4%, an oedema % inhibition ([5]; 20 mg/Kg, Table IV (route not given), 6 h) of 48.6% and an oedema % inhibition ([5]; 20 mg/Kg, Table IV (route not given), 24 h) of 23.5%. The oedema % inhibition ([5]; 20 mg/Kg, Table IV (route not given), 48 h) was 9.1%, the oedema % inhibition ([5]; 20 mg/Kg, Table IV (route not given), 72 h) was 8.4% and the oedema % inhibition ([5]; 50 mg/Kg per os, 2 h) was 66.9%. For the same compound, the oedema % inhibition ([5]; 50 mg/Kg per os, 4 h) was 66.8%, the oedema % inhibition ([5]; 50 mg/Kg per os, 6 h) was 57.8% and the oedema % inhibition ([5]; 50 mg/Kg per os, 24 h) was 30.9%. The oedema % inhibition ([5]; 50 mg/Kg per os, 48 h) was 36.3%, the oedema % inhibition ([5]; 50 mg/Kg per os, 72 h) was 38.6% and the oedema % inhibition ([5]; 50 mg/Kg, Table IV (route not given), 2 h) was 69.7%. The oedema % inhibition ([5]; 50 mg/Kg, Table IV (route not given), 4 h) was 74.0%, the oedema % inhibition ([5]; 50 mg/Kg, Table IV (route not given), 6 h) was 67.2% and the oedema % inhibition ([5]; 50 mg/Kg, Table IV (route not given), 24 h) was 34.5%. The oedema % inhibition ([5]; 50 mg/Kg, Table IV (route not given), 48 h) was 20.8%, the oedema % inhibition ([5]; 50 mg/Kg, Table IV (route not given), 72 h) was 15.3% and the oedema % inhibition ([5]; 100 mg/Kg per os, 2 h) was 68.0%. It also gave an oedema % inhibition ([5]; 100 mg/Kg per os, 4 h) of 74.0%, an oedema % inhibition ([5]; 100 mg/Kg per os, 6 h) of 67.5% and an oedema % inhibition ([5]; 100 mg/Kg per os, 24 h) of 40.3%. It also gave an oedema % inhibition ([5]; 100 mg/Kg per os, 48 h) of 38.0%, an oedema % inhibition ([5]; 100 mg/Kg per os, 72 h) of 33.0% and an oedema % inhibition ([5]; 100 mg/Kg, Table IV (route not given), 2 h) of 76.5%. The oedema % inhibition ([5]; 100 mg/Kg, Table IV (route not given), 4 h) was 79.5%, the oedema % inhibition ([5]; 100 mg/Kg, Table IV (route not given), 6 h) was 73.4% and the oedema % inhibition ([5]; 100 mg/Kg, Table IV (route not given), 24 h) was 42.4%. The oedema % inhibition ([5]; 100 mg/Kg, Table IV (route not given), 48 h) was 33.0% and the oedema % inhibition ([5]; 100 mg/Kg, Table IV (route not given), 72 h) was 31.6%.
